Where two headings read alike, the source gives them in different places.
Tests used:
NCI-H929 cell lines = test: In vitro cytotoxicity, CellTiter-Glo (CTG) assay (Example B, Method B); assay type: cell-based; settings: NCI-H929 cells, 48 h incubation, read-out: C50
Procedure: Cellular viability was monitored with the cell viability assay (Cell Titer-Glo®) on NCI-H929 cell lines. The CellTiter-Glo® (CTG) Luminescent Cell Viability Assay (from Promega) is a homogeneous method to determine the number of viable cells in culture based on quantitation of the ATP present, which signals the presence of metabolically active cells.
Concentration response of test compounds are performed with 10 mM stock solutions (DMSO), 11-points curve, in a 384-well compound plate. The assay plate is prepared by stamping 120 nL from compound dilution plate of all different concentrations (e.g. 10 mM to have final 30 μM assay test) into a cell culture microplate, using Echo acoustic liquid handling (Labcyte, Beckman). 40 μl of cell solution is added and cells are incubated with compounds for 48 h at 37° C., 5% CO2. CTG was added to the cells (according to the manufacturer instructions) and luminescence intensity was recorded using the Pherastar plate reader (BMG).
This assay provides in vitro cellular efficacy of compounds of Formula (I) tested, measuring the C50, defined as the concentration needed to reach 50% of the cellular viability.

[1] = molecular target: Cy5-labelled Mcl1 (amino acids 171-321) C286S protein (UniProtKB Q07820) (Homo sapiens (Human), UniProt Q07820, C286S); test: Inhibition of Mcl-1 by the fluorescence quenching assay (Example A, Method B); assay type: binding
How it was run: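 Cy5-labelled Mcl1 171-321 C286S (1 nM) quenched by TQ5WS-labelled PUMA peptide (10, 20 or 400 nM); displacement raises fluorescence (Ex 620/Em 680 nm). Buffer 10 mM HEPES, 150 mM NaCl, 0.05% Tween 20, pH 7.4, 5% DMSO; 2 h at room temperature, 11-point curves, IC50 converted to Ki (cKi/eKi).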

[2] = test system: H929 multiple myeloma tumor line; test: In vitro cytotoxicity, MTT assay (Example B, Method A); assay type: cell-based; settings: H929 cells, 48 hours exposure, read-out: C50
Procedure: The cytotoxicity studies were carried out on the H929 multiple myeloma tumor line.
The cells are distributed onto microplates and exposed to the test compounds for 48 hours. The cell viability is then quantified by a colorimetric assay, the Microculture Tetrazolium Assay (Carmichael et al, Cancer Res. 1987, 47, 939-942).
The results are expressed in C50 which means concentration corresponding to […] of effect/inhibition.

Sequence of Cy5-labelled Mcl1 (amino acids 171-321) C286S protein (Q07820 171-321 C286S): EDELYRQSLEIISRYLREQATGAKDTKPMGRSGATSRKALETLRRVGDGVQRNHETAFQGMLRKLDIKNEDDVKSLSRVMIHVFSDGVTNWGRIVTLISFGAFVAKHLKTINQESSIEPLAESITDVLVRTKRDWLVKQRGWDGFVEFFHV

Row | Ki [1] [nM] | Structure (SMILES) | IC50 (NCI-H929 cell lines) [nM] | IC50 (NCI-H929 cell lines; Homo sapiens, NCI-H929, 48 h) [nM] | IC50 [2] [nM] | IC50 ([2]; Homo sapiens, NCI-H929, 48 h) [nM]
1 | 26.8 | CC1CCN(C)c2nccc(OC[C@H](C)C[C@H]3Cc4ccccc4[C@]34CC[C@@](Nc3cccc(Cl)c3)(C(=O)O)CC4)c21 (single isomer, unassigned) [Example 643] | – | – | – | 1230
2 | 2.12 | CC(O)c1ccc2c(c1)[C@]1(CC[C@@](Nc3cccc(Cl)c3)(C(=O)O)CC1)[C@H](C[C@@H](C)COc1ccnc3ccsc13)C2 (stereo partly drawn) [Example 721, (1r,2′R,4R)-4-(3-chloroanilino)-6′-(1-hydroxyethyl)-2′-{(2R)-2-methyl-3-[(thieno[3,2-b]pyridin-7-yl)oxy]propyl}-2′,3′-dihydrospiro[cyclohexane-1,1′-indene]-4-carboxylic acid] | – | – | – | 670
3 | 221 | CC[C@H]1CC[C@H](O)c2nccc(OC[C@H](C)C[C@H]3Cc4ccccc4[C@]34CC[C@@](Nc3cccc(Cl)c3)(C(=O)O)CC4)c21 [Example 678, (1r,2′S,4S)-4-(3-chloroanilino)-2′-[(2R)-3-{[(5S,8S)-5-ethyl-8-hydroxy-5,6,7,8-tetrahydroquinolin-4-yl]oxy}-2-methylpropyl]-2′,3′-dihydrospiro[cyclohexane-1,1′-indene]-4-carboxylic acid] | – | – | – | 9630
4 | 0.374 | CC(O)c1ccc2c(c1)[C@]1(CC[C@@](Nc3cccc(Cl)c3)(C(=O)O)CC1)[C@@H](C[C@@H](C)COc1ccnc3c1[C@H](C)CC[C@H]3F)C2 (single isomer, unassigned) [Example 864] | – | – | 183 | –
5 | 3.63 | C[C@@H](COc1ccnc2c1[C@H](C)CC[C@H]2F)CC1=Cc2cc(F)ccc2[C@]12CC[C@@](Nc1cccc(Cl)c1)(C(=O)O)CC2 [Example 772, (1r,4R)-4-(3-chloroanilino)-5′-fluoro-2′-[(2R)-3-{[(5R,8R)-8-fluoro-5-methyl-5,6,7,8-tetrahydroquinolin-4-yl]oxy}-2-methylpropyl]spiro[cyclohexane-1,1′-indene]-4-carboxylic acid] | – | – | – | 126
6 | 2.74 | C[C@@H](COc1ccnc2c1CCC[C@H]2O)C[C@H]1Cc2ccccc2[C@]12CC[C@@](Nc1cccc(Cl)c1)(C(=O)O)CC2 [Example 668, (1r,2′S,4S)-4-(3-chloroanilino)-2′-[(2R)-3-{[(8R)-8-hydroxy-5,6,7,8-tetrahydroquinolin-4-yl]oxy}-2-methylpropyl]-2′,3′-dihydrospiro[cyclohexane-1,1′-indene]-4-carboxylic acid] | – | – | – | 355
7 | 29.5 | C[C@@H](COc1ccnc2c1[C@@H](C)CC[C@@H]2F)C[C@H]1Cc2ccccc2[C@]12CC[C@@](Nc1cccc(Cl)c1)(C(=O)O)CC2 [Example 690, (1r,2′S,4S)-4-(3-chloroanilino)-2′-[(2R)-3-{[(5S,8S)-8-fluoro-5-methyl-5,6,7,8-tetrahydroquinolin-4-yl]oxy}-2-methylpropyl]-2′,3′-dihydrospiro[cyclohexane-1,1′-indene]-4-carboxylic acid] | – | – | – | 1410

Continued, molecule first:

Row | Structure (SMILES) | Ki [1] [nM] | IC50 (NCI-H929 cell lines) [nM] | IC50 (NCI-H929 cell lines; Homo sapiens, NCI-H929, 48 h) [nM] | IC50 [2] [nM] | IC50 ([2]; Homo sapiens, NCI-H929, 48 h) [nM]
8 | CCCC1COc2cc3c(cc2OC1)[C@]1(CC[C@@](Nc2cccc(Cl)c2)(C(=O)O)CC1)[C@@H](C[C@@H](C)COc1ccnc2c1[C@H](C)CCC2)C3 (single isomer, unassigned) [Example 991] | 0.0764 | 162 | – | – | –
9 | CC[C@@H]1COc2cc3c(cc2O1)C[C@H](C[C@@H](C)COc1ccnc2c1[C@H](C)CCC2)[C@]31CC[C@](Nc2cccc(Cl)c2)(C(=O)O)CC1 [Example 980, (1r,2′R,4S,7′S)-4-(3-chloroanilino)-2′-ethyl-7′-[(2R)-2-methyl-3-{[(5R)-5-methyl-5,6,7,8-tetrahydroquinolin-4-yl]oxy}propyl]-2′,3′,7′,8′-tetrahydrospiro[cyclohexane-1,6′-indeno[5,6-b][1,4]dioxine]-4-carboxylic acid] | 0.102 | – | 142 | – | –
10 | C[C@@H](COc1ccnc2c1[C@H](C)CCC2)C[C@H]1Cc2cc3c(cc2[C@]12CC[C@@](Nc1cccc(Cl)c1)(C(=O)N(C)C)CC2)OCO3 [Example 956, (1r,4S,6′S)-4-(3-chloroanilino)-N,N-dimethyl-6′-[(2R)-2-methyl-3-{[(5R)-5-methyl-5,6,7,8-tetrahydroquinolin-4-yl]oxy}propyl]-6′,7′-dihydro-2′H-spiro[cyclohexane-1,5′-indeno[5,6-d][1,3]dioxole]-4-carboxamide] | – | – | 14500 | – | –
11 | C[C@@H](COc1ccnc2c1[C@H](C)CCC2)C[C@H]1Cc2cc3c(cc2[C@]12CC[C@@](Nc1cccc(Cl)c1)(C(N)=O)CC2)OCO3 [Example 954, (1r,4S,6′S)-4-(3-chloroanilino)-6′-[(2R)-2-methyl-3-{[(5R)-5-methyl-5,6,7,8-tetrahydroquinolin-4-yl]oxy}propyl]-6′,7′-dihydro-2′H-spiro[cyclohexane-1,5′-indeno[5,6-d][1,3]dioxole]-4-carboxamide] | – | – | 2790 | – | –
12 | C[C@@H](COc1ccnc2c1CCCC2C(F)F)C[C@H]1Cc2ccccc2[C@]12CC[C@@](Nc1cccc(Cl)c1)(C(=O)O)CC2 (single isomer, unassigned) [Example 683] | 106 | – | – | 9850 | –
13 | CNC(=O)[C@]1(Nc2cccc(Cl)c2)CC[C@@]2(CC1)c1cc3c(cc1C[C@@H]2C[C@@H](C)COc1ccnc2c1[C@H](C)CCC2)OCO3 [Example 955, (1r,4S,6′S)-4-(3-chloroanilino)-N-methyl-6′-[(2R)-2-methyl-3-{[(5R)-5-methyl-5,6,7,8-tetrahydroquinolin-4-yl]oxy}propyl]-6′,7′-dihydro-2′H-spiro[cyclohexane-1,5′-indeno[5,6-d][1,3]dioxole]-4-carboxamide] | – | – | 11300 | – | –
14 | C[C@@H](COc1ccnc2ccsc12)C[C@@H]1Cc2ccc(F)cc2[C@]12CC[C@@](Nc1cccc(Cl)c1)(C(=O)O)CC2 [Example 736, (1r,2′R,4R)-4-(3-chloroanilino)-6′-fluoro-2′-{(2R)-2-methyl-3-[(thieno[3,2-b]pyridin-7-yl)oxy]propyl}-2′,3′-dihydrospiro[cyclohexane-1,1′-indene]-4-carboxylic acid] | 5.19 | – | – | – | 1220
15 | C[C@@H](COc1ccnc2c1[C@H](C)CCC2)CC1=Cc2cc(F)c(F)cc2[C@]12CC[C@@](Nc1cccc(Cl)c1)(C(=O)O)CC2 [Example 774, (1r,4R)-4-(3-chloroanilino)-5′,6′-difluoro-2′-[(2R)-2-methyl-3-{[(5R)-5-methyl-5,6,7,8-tetrahydroquinolin-4-yl]oxy}propyl]spiro[cyclohexane-1,1′-indene]-4-carboxylic acid] | 1.42 | – | – | – | 118
16 | C[C@@H](COc1ccnc2c1[C@H](C)CCC2)CC1Cc2c(Cl)c(F)ccc2[C@]12CC[C@@](Nc1cccc(Cl)c1)(C(=O)O)CC2 (single isomer, unassigned) [Example 746] | 0.356 | – | – | 25.4 | –
17 | O=C(O)[C@]1(Nc2cccc(Cl)c2)CC[C@@]2(CC1)c1ccccc1CC2CC(COc1ccnc2c1CCC2)COc1ccnc2c1CCC2 (single isomer, unassigned) [Example 498, (1r,4r)-4-(3-chloroanilino)-2′-(3-[(6,7-dihydro-5H-cyclopenta[b]pyridin-4-yl)oxy]-2-{[(6,7-dihydro-5H-cyclopenta[b]pyridin-4-yl)oxy]methyl}propyl)-2′,3′-dihydrospiro[cyclohexane-1,1′-indene]-4-carboxylic acid] | 0.769 | – | – | 436 | –
18 | C[C@@H](COc1ccnc2c1[C@@H](C)CCC2)CC1=Cc2ccccc2[C@]12CC[C@@](Nc1cccc(Cl)c1)(C(=O)O)CC2 [Example 647, (1r,4R)-4-(3-chloroanilino)-2′-[(2R)-2-methyl-3-{[(5S)-5-methyl-5,6,7,8-tetrahydroquinolin-4-yl]oxy}propyl]spiro[cyclohexane-1,1′-indene]-4-carboxylic acid] | 9.39 | – | – | – | 871
19 | C[C@@H](COc1ccnc2ccsc12)C[C@H]1Cc2ccccc2[C@]12CC[C@@](Nc1cccc(Cl)c1)(C(=O)O)CC2 [Example 591, (1r,2′S,4S)-4-(3-chloroanilino)-2′-{(2R)-2-methyl-3-[(thieno[3,2-b]pyridin-7-yl)oxy]propyl}-2′,3′-dihydrospiro[cyclohexane-1,1′-indene]-4-carboxylic acid] | 2.72 | – | – | – | 438
20 | C[C@@H]1CCCc2nccc(OCC(F)CC3Cc4ccccc4[C@]34CC[C@@](Nc3cccc(Cl)c3)(C(=O)O)CC4)c21 (single isomer, unassigned) [Example 509] | 5.3 | – | – | 999 | –

From US20240150293A1, “SPIROCYCLOHEXANE DERIVATIVES, PHARMACEUTICAL COMPOSITIONS CONTAINING THEM AND THEIR USES AS ANTI-APOPTOTIC INHIBITORS” (LES LABORATOIRES SERVIER, priority 2021, published 2024)
